“Also recorded” adds a separate entry of the source.
Legend:
HeLa cells = assay: Growth of HeLa cells (non-GI control); format: cell-based, human; conditions: peptide up to 8 μg/ml
Method: To characterize the capacity of gastric and intestinal cells to respond to AMP-18, AGS gastric adenocarcinoma cells, HAE human gastric antrum mucosa primary cultures transformed with SV40 large T antigen, rat diploid small intestinal epithelial cells of the IEC-6 (FIG. 15) and IEC-18 lines, NCI N-87 gastric carcinoma cells, and SK-GT5 gastroesophageal adenocarcinoma cells were studied; human WI-38 fibroblasts and HeLa cells served as non-GI control cell lines. Mitogenesis was assayed by performing cell counts 3 to 4 days after exposing cells to the agent of interest, trypsinizing the culture to prepare single cells, and confirming this while counting them in a hemocytometer.

Aspergillus niger = assay: Growth of other bacteria and fungi; format: cell-based
[1] = test system: tyrosine phosphorylation, p38 MAP kinase, hsp25, JNK1/2, ERK1/2; assay: Phosphorylation of signaling proteins in IEC-18 cells (immunoblot); format: cell-based, rat
Method: To find signaling molecules by which AMP peptide mediates its biological effects, it was asked if the peptide stimulates tyrosine phosphorylation in GI epithelial cells. IEC-18 cells were treated with AMP peptide for different periods of time, the cells were then lysed, the proteins extracted and separated on SDS-polyacrylamide gels, blotted, and the blot was probed with 4G10 anti-phosphotyrosine monoclonal antibody.
First the effect of AMP peptide on phosphorylation of p38 MAPK in IEC-18 cells was examined. After exposure to the peptide (8 μg/ml) for up to 2 hr, the cells were lysed, the proteins were extracted, and Western blot analysis was performed using anti-phospho-specific p38 antibody. Then the membrane was stripped and reprobed with anti-p38 antibody. […] Next, to see if AMP peptide stimulated phosphorylation of hsp25, a specific anti-phospho-hsp25 antibody (Affinity BioReagents) was used to probe a blot prepared using AMP peptide-treated IEC-18 cells as above.

Acinetobacter baumanii = assay: Growth of other bacteria and fungi; format: cell-based
Streptococcus agalactiae = assay: Growth of other bacteria and fungi; format: cell-based
[2] = test system: Staphylococcus epidermidis; assay: Growth of other bacteria and fungi; format: cell-based
Helicobacter pylori = assay: Growth inhibition on a bacterial lawn (filter diffusion); format: cell-based; conditions: solution on filter
Method: To determine if AMP peptide inhibits growth of H. pylori, a lawn of bacteria was prepared on a culture dish. A small circular filter was placed in the center of the dish, a solution of a test agent was placed on the filter so it diffused onto the lawn, and its effect on bacterial growth around the filter was measured. AMP peptide 77-97 (SEQ ID NO: 12) (Table 1), a scrambled version of this AMP peptide (negative control) (SEQ ID NO: 19), or the antibiotic clarithromycin (positive control) was added to a filter on different cultures. […] In addition, AMP peptide could serve as a therapeutic agent to treat H. pylori infections in the stomach, and thereby prevent the capacity of this organism to cause gastritis, gastric ulcers, and gastric adenocarcinomas.

Candida albicans = assay: Growth of other bacteria and fungi; format: cell-based
MDCK cells = assay: Transepithelial electrical resistance (TER) of MDCK cell monolayers; format: cell-based
Method: Monolayer cultures of MDCK cells were grown on permeable polycarbonate filters (0.4-μm pore size) (Transell) in DMEM containing FBS (2%) without (control) or with peptide 77-97 (8 μg/ml) for 8 days. TER was measured 24 hr after the cells were plated, and at specified times thereafter using an epithelial volt-ohm meter (EVOM, Millipore). Following each measurement, medium containing FBS without or with peptide was changed (0, 48, and 144 hr), and additional peptide 77-97 (8 μg/ml) was added at 30 and 72 hr. At 72 hr, TER in cultures that received peptide 77-97 was twice as high as in control cultures. Values are means for 3 cultures; variance is <10% of the mean. TER was measured from 3 different areas on the filter.
Panel A: When a stable TER was reached (330 Ω·cm^2) in MDCK cell monolayers the medium was changed to DMEM containing FBS (0.2%), and either peptide 77-97 (8 μg/ml) or EGF (50 ng/ml). After 18 hr, peptide 77-97 or EGF were added to the specified wells. One hour later monochloramine (0.1 mM), like the other agents, was added to the apical and basal compartments of the Transwell. […] Panels B, C: Caco2/bbe (C2) subclone monolayers were grown on collagen-coated polycarbonate filters until a stable TER was reached (225 Ω·cm^2). Spent medium was replaced with fresh medium containing FBS (0.1%) alone or with peptide 77-97 (8 μg/ml). After 18 hr, monochloramine (0.3 mM, B) or indomethacin (0.1 mM, C) was added to both compartments of the Transwell. At time 0, cultures received either vehicle (control), vehicle plus oxidant or indomethacin, or peptide 77-97 and oxidant or indomethacin. TER of injured cultures treated with vehicle decreased by ˜35% at 90 min, whereas peptide-treated cultures declined ˜10%.

LDALVKEKKLQGKGPGGPPPK [97–117, peptide 77-97 of the mature protein, same as 97-117 of the human precursor]
growth stimulation of HeLa cells (HeLa cells): does not stimulate growth
growth stimulation of HeLa cells (HeLa cells; listed as AMP peptide): failure
growth of Aspergillus niger (Aspergillus niger): did not alter the growth
phospho (P)-hsp25 ([1]; 30 min): stimulated the appearance
activation (phosphorylation) of JNK1/2 and ERK1/2 ([1]; JNKs after 10 min, ERKs at 20 min, listed as AMP peptide): rapidly activated
total hsp25 ([1]; after 1 hr): increase
total p38 MAPK ([1]; peptide 8 μg/ml): no change
p38 MAP kinase phosphorylation ([1]; peptide 8 μg/ml, 30 min, listed as AMP peptide): striking increase; also recorded: increased
protein tyrosine phosphorylation ([1]; peptide 8 μg/ml, two min): tyrosine phosphorylation of several proteins
growth of Acinetobacter baumanii (Acinetobacter baumanii): did not alter the growth
growth of Streptococcus agalactiae (Streptococcus agalactiae): did not alter the growth
growth of Staphylococcus epidermidis [2]: did not alter the growth
growth of H. pylori lawn (Helicobacter pylori; listed as AMP peptide): inhibited growth
growth of H. pylori lawn (Helicobacter pylori; listed as AMP peptide 77-97): inhibited
growth of Candida albicans (Candida albicans): did not alter the growth
maturation of TER (MDCK cells; by 24 hr and to a greater extent thereafter): increases TER
TER relative to control cultures (MDCK cells; peptide 8 μg/ml, at 72 hr): twice as high
